Data published in patent publication US9632088B2, “Methods and compositions for gamma-secretase assay” (MEMORIAL SLOAN-KETTERING CANCER CENTER, priority 2010, dated 2017).

How the values were obtained:
[1] = molecular target: T1, E280A PS1 NTF (γ-secretase active site) (Homo sapiens, UniProt P49768, E280A); test: Photolabeling of PS1 NTF, N2a E280A PS1 membrane; assay type: binding, murine; conditions: probes 10 nM, 0.25% CHAPSO, normalized to JC8, excess L458 as competitor
T1 construct: total membrane
Experimental: (§1) Total cell membrane was pre-incubated in the presence of DMSO or 1 μM L458 in PIPES buffer containing 0.25% CHAPSO at 37° C. for 30 minutes. Then, photolabeling probes (JC8, L646 or GY4) (Li et al., 2000, Nature, 405:689-694, Chun et al., 2004, J Org. Chem., 69:7344-7347, Yang et al., 2009, Bioorg Med Chem. Lett., 19:922-925) at 10 nM were added and incubated for an additional 1 hour at 37° C. The reaction mixtures were irradiated at 350 nm for 45 minutes and solubilize with RIPA buffer. Biotinylated proteins in the soluble fraction were captured by Streptavidin resin (Pierce) overnight at 4° C. Bound proteins were eluted by boiling with SDS sample buffer and analyzed by western blotting with anti-PS1 NTF antibodies.
(§2) L646, GY4 and JC8, which photolabel the S2, S1, and S1′ subsites within the active site of PS1, respectively, were used for this study (FIG. 10b). Membranes isolated from N2a cells stably expressing wild-type (WT), M146L, or E280A PS1 were photolabeled with JC8, GY4 or L646 in the presence of 0.25% CHAPSO. […] After […] irradiation, biotinylated proteins were isolated with streptavidin beads and analyzed by western blotting with anti-PS1 NTF antibodies. […] To eliminate the effect of various amounts of γ-secretase existing in different cell lines, we normalized each probe with JC8 labeling in the same cell lines.

[2] = molecular target: T2, M146L PS1 NTF (γ-secretase active site) (Homo sapiens, UniProt P49768, M146L); test: Photolabeling of PS1 NTF, N2a M146L PS1 membrane; assay type: binding, murine; conditions: probes 10 nM, 0.25% CHAPSO, normalized to JC8, excess L458 as competitor
T2 construct: total membrane
Experimental: as §1, §2

γ-secretase [3] = molecular target: T3, γ-secretase (Homo sapiens, UniProt P49768); test: Cell-based Notch cleavage assay, immunostaining with SM320, HEK293 cells transfected with N1-ΔE; conditions: 1 μM inhibitor, 48 hours
T3 construct: endogenous in cells; host or cells: HEK293 cells transiently transfected with myc-tagged N1-ΔE (substrate only)
Experimental: HEK293 cells were seeded in a 4-well chamber slide (Lab-tek) and transfected with N1-ΔE as in the preceding paragraph, using Fugene 6 transfection reagents (Roche Applied Science, Mannheim, Germany). Transfected cells were then treated with either DMSO at a 1% final concentration or 1 μM Compound E.
After 48 hours of treatment, the cells were washed with PBS, fixed with cold methanol and permeabilized with 0.25% Tween-20. SM320 and anti-myc antibodies were added to detect NICD and full length N1-ΔE, respectively. Alexa Fluor-488 (Invitrogen, San Diego, Calif.) conjugated anti-rabbit and Alexa Fluor-594 (Invitrogen) conjugated anti-mouse antibodies were used as corresponding secondary antibodies. 4′,6-diamidino-2-phenylindole (DAPI) was used to stain cell nuclei. Finally, fluorescent images were captured with a Leica TCS Sp2 AOBS laser scanning confocal microscope (Memorial Sloan-Kettering Cancer Center Molecular Cytology Core Facility). Alternatively, REK 293 cells overexpressing N1-ΔE were treated with DMSO or Compound E, and were then collected through centrifugation and embedded in paraffin. The cell pellets were sliced and mounted on glass slides. […]
SM320 was further characterized using immunostaining analysis. […] Using confocal microscopy, it was shown that N1-ΔE protein, as detected by anti-myc antibody, is expressed in cells transfected with the construct (FIG. 6B, panel 2). […]

[4] = molecular target: T4, WT PS1 NTF (γ-secretase active site) (Homo sapiens, UniProt P49768); test: Photolabeling of PS1 NTF, N2a wild-type PS1 membrane; assay type: binding, murine; conditions: probes 10 nM, 0.25% CHAPSO, normalized to JC8, excess L458 as competitor
T4 construct: total membrane
Experimental: as §1, §2

γ-secretase [5] = molecular target: T3, γ-secretase; test: Cell-based Notch cleavage assay, western blot with SM320, HEK293 cells transfected with N1-ΔE; conditions: 1 μM inhibitor, 48 hours
Experimental: HEK293 cells were seeded in a 24-well plate and transfected with either truncated Notch1-ΔE construct (N1-ΔE) (gift from Dr. Raphael Kopan, Washington University School of Medicine, St. Louis, Mo.; (see Supplemental FIG. 1A of van Tetering et al., 2009, J. Biol. Chem., 284:31018-31027, for a diagram of N1-ΔE)) including cmyc (24), or empty pcDNA3.1 (−) (Invitrogen), using Fugene 6 transfection reagents (Roche). N1-ΔE includes the replete intracellular sequence, the transmembrane domain, and a truncated extracellular portion lacking LNR and the EGF repeat sequences (see Supplemental FIG. 1A of van Tetering et al., 2009, J. Biol. Chem., 284:31018-31027). […] The proteins were transferred to PVDF membrane (Millipore) using a semi-dry transfer emit (Bio-Rad) and analyzed by western blot with anti-myc antibody (prepared at Memorial Sloan-Kettering Cancer Center) and SM320 antibody.
HEK 293 cells were transiently transfected with truncated Notch1-ΔE construct including cmyc (N1-ΔE), a substrate of γ-secretase that is independent of ligand activation, as described in Experimental Methods. […] Cell lysates were analyzed by performing SDS-PAGE and immunoblotting the result with anti-myc and SM320 antibody (FIG. 6A). […] N1-ΔE was detected only in cells transfected with this construct (FIG. 6A, upper panel, lanes 1 and 2) but not in the mock transfected cells (FIG. 6A, upper panel, lane 3).

| Structure (SMILES) | Photolabeling of PS1 NTF (western blot) [1] | Photolabeling of PS1 NTF (western blot) [2] | detection of NICD by SM320 immunostaining (γ-secretase [3]) | Photolabeling of PS1 NTF (western blot) [4] | detection of cleaved NICD band by SM320 (western blot) (γ-secretase [5]) |
| --- | --- | --- | --- | --- | --- |
| CC(C)C[C@H](NC(=O)[C@H](Cc1ccccc1)C[C@@H](O)[C@H](Cc1ccccc1)NC(=O)OC(C)(C)C)C(=O)N[C@@H](Cc1ccccc1)C(N)=O [L458] | completely prevented labeling | completely prevented labeling | No spots of any color are observed | completely prevented labeling | – |
| CC(NC(=O)Cc1cc(F)cc(F)c1)C(=O)NC1N=C(c2ccccc2)c2ccccc2N(C)C1=O (stereo not drawn) [Compound E] | – | – | not in cells treated with Compound E | – | not in the Compound E-treated cells |
